For series [1], the target named is Tyrosine-protein kinase JAK1 (Homo sapiens, UniProt P23458).
Series [2] is described as follows: Lipophilicity, logD of compound. In kind it is physicochemical. The settings on record: octanol/water.
For series [3], the target named is Proto-oncogene tyrosine-protein kinase Src (Homo sapiens) (UniProt P12931). The series can be described thus: Inhibition of recombinant human C-terminal His-tagged full length SRC expressed in baculovirus expression system using Tyr 02 as substrate at 0.1 uM incubated for 60 mins by Z'-Lyte assay relative to control.
Sequence of Proto-oncogene tyrosine-protein kinase Src (Homo sapiens) (P12931 2-536 limits assumed): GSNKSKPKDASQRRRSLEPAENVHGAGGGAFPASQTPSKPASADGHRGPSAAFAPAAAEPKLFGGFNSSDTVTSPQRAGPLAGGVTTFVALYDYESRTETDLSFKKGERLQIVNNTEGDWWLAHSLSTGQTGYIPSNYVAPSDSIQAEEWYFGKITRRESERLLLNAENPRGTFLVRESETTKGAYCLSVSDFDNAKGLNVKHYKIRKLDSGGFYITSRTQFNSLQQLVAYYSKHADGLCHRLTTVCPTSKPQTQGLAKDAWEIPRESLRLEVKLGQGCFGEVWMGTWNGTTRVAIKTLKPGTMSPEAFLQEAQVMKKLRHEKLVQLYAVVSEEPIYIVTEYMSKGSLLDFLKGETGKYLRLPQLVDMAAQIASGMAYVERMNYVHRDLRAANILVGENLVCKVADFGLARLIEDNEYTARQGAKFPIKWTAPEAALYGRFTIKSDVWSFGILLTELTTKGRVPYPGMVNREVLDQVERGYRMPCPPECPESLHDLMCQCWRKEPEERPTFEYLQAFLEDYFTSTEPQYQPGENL
Series [4] deals with T1, Ephrin type-B receptor 2 (Homo sapiens) (UniProt P29323).
T1 sequence (whole entry): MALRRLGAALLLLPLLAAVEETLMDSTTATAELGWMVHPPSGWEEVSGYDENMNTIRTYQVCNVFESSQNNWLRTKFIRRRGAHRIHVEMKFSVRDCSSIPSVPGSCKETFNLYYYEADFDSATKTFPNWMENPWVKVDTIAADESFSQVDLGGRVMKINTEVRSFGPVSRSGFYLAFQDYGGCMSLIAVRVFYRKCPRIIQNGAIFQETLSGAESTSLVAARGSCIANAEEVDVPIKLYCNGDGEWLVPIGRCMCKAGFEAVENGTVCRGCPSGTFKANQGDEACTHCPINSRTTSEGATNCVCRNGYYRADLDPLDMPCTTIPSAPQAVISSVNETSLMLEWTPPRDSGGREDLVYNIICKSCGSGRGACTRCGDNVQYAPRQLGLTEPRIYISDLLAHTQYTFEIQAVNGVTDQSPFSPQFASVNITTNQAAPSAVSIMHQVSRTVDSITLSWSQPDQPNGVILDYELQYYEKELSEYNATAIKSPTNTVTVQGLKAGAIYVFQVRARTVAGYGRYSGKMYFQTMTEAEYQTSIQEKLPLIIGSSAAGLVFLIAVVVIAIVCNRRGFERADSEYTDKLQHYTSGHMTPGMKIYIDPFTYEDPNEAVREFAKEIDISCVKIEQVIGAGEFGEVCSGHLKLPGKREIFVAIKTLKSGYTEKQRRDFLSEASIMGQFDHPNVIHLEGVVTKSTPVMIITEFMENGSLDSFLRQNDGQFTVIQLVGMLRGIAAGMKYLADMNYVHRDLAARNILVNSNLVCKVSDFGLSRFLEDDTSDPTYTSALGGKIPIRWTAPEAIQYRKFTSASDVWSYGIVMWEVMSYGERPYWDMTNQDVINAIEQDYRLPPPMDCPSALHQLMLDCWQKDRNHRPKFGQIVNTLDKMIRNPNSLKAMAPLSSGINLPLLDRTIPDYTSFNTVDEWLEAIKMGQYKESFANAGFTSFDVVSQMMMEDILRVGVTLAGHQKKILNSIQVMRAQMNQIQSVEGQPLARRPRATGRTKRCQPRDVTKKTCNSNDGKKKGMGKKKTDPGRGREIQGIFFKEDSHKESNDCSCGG
The series can be described thus: Inhibition of recombinant human GST-tagged EPHB2 (616 to 884 residues) expressed in baculovirus expression system using Tyr 02 as substrate at 0.1 uM incubated for 60 mins by Z'-Lyte assay relative to control.

Series [5] deals with Tyrosine-protein kinase SYK (Homo sapiens) (UniProt P43405). The series can be described thus: Inhibition of recombinant human N-terminalGST-tagged full length SYK expressed in baculovirus expression system using Tyr 02 as substrate at 0.1 uM incubated for 60 mins by Z'-Lyte assay relative to control.
The target in series [6] is T2, Beta-adrenergic receptor kinase 1 (Homo sapiens) (UniProt P25098).
T2 sequence (whole entry): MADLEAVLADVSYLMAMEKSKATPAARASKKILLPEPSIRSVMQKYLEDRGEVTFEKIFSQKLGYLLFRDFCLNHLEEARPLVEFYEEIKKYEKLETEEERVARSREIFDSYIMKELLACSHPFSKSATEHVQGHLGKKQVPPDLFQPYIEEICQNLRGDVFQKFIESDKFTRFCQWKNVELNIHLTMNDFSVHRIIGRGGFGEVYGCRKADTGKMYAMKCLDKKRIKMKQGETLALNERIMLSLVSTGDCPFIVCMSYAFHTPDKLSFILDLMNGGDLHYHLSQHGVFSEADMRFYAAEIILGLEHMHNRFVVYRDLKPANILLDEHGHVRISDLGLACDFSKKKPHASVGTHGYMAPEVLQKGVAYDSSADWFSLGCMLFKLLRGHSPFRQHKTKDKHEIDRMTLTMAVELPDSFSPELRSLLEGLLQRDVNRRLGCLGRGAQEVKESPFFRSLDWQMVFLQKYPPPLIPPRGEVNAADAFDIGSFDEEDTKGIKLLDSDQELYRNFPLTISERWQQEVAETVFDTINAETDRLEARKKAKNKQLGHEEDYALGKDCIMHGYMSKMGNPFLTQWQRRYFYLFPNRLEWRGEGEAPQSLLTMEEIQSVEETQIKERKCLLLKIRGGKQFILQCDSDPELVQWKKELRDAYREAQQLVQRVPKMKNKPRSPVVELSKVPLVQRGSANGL
The series can be described thus: Inhibition of recombinant human His-tagged full length GRK2 expressed in baculovirus expression system using Ser/Thr 16 as substrate at 0.1 uM incubated for 60 mins by Z'-Lyte assay relative to control.

Series [7] deals with T3, cGMP-dependent protein kinase 2 (Homo sapiens) (UniProt Q13237).
T3 sequence (whole entry): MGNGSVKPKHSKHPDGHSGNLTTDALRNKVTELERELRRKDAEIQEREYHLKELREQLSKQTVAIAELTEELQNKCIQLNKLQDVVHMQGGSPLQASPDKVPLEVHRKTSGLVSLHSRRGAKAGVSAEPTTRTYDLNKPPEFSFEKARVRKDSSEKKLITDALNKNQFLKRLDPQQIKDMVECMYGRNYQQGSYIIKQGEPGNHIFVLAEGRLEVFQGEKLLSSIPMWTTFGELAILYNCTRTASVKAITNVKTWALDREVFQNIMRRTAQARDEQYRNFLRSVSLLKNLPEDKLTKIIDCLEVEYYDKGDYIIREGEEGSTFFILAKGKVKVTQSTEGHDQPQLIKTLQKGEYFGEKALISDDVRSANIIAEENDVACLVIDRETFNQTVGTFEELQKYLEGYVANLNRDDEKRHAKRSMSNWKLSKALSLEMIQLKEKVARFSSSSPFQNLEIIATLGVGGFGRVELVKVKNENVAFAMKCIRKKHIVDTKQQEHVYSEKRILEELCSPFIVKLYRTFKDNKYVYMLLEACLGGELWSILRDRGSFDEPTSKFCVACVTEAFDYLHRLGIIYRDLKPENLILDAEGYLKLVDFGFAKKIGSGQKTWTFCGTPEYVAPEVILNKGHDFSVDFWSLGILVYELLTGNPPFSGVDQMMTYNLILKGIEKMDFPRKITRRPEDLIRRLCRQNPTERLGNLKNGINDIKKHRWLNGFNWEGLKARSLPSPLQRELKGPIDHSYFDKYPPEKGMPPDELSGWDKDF
The series can be described thus: Inhibition of recombinant human GST-tagged full length PKG2 expressed in baculovirus expression system using Ser/Thr 01 as substrate at 0.1 uM incubated for 60 mins by Z'-Lyte assay relative to control.

The nature of series [8]: in vitro. The settings on record: dog, MDCK.
Description: Apparent permeability across apical to basolateral side in MDCK cells at 10 uM incubated upto 180 mins by LC/MS-MS analysis

Sequence of Tyrosine-protein kinase JAK1 (P23458 whole entry): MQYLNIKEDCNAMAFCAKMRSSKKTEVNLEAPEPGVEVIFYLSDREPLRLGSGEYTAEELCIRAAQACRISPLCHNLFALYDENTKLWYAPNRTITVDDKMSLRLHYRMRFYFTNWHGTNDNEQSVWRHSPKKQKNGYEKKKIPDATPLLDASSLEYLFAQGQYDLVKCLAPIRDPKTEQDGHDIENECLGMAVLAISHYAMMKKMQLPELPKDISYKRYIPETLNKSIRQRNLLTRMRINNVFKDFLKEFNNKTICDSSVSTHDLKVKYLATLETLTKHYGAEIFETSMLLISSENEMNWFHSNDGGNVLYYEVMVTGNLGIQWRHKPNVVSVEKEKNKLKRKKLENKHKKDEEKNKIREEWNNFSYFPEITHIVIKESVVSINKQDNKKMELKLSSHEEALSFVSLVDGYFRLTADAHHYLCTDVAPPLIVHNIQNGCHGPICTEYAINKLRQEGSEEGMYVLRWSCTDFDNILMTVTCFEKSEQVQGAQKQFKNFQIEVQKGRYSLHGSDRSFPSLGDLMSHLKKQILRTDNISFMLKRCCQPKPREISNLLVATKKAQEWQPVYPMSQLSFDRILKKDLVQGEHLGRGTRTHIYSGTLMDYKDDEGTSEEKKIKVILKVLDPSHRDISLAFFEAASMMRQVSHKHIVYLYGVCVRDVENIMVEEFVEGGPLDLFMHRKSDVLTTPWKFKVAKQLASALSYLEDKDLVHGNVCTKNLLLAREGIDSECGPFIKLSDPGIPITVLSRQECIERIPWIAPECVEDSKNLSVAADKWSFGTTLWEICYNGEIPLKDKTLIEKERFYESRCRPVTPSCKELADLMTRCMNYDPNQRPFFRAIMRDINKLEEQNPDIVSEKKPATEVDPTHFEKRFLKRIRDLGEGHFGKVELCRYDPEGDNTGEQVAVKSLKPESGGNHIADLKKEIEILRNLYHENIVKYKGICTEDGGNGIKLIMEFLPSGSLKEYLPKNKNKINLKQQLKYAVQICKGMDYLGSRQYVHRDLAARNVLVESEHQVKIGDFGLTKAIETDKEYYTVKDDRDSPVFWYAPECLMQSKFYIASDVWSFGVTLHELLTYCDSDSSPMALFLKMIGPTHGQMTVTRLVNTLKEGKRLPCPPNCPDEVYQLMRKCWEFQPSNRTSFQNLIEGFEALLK

Usually IC50 stands for the concentration at which inhibition is half-maximal. A lower IC50 goes with inhibition by little substance. In general, logD refers to the decadic logarithm of the distribution of all forms, ionised or not, between an organic phase and buffer at a given pH. A higher logD goes with a more lipophilic compound. As a reminder, the inhibition is the change of the read-out against control, counted positive when it falls. For orientation: Papp A→B means how fast a substance crosses the layer from the apical side. The molecule `Cn1cc(NC(=O)c2cnn3cccnc23)c(-c2cc(Cl)ccc2OC(F)F)n1` returned a half-maximal inhibitory concentration (IC50) in series [1] of 1.7 nM. This molecule had a logD in series [2] of 3. For the same molecule, the inhibition in series [3] was 28%; in series [4] it was 1%; in series [5] it was 7%; in series [6], 8%; in series [7], 6%. In addition, in series [8], the Papp A→B at 3 h, 10 µM was 14 ×10⁻⁶ cm/s.

Molecule `O=C(Nc1c[nH]nc1-c1cc2ccccc2cc1OC(F)F)c1cnn2cccnc12` returned a 50% inhibitory concentration (IC50) in series [1] of 2.2 nM. For the same molecule, in series [2], the logD came to 3.5. The inhibition in series [3] was 35%; in series [4], -3%; in series [5], 6%; in series [6], 0%; in series [7], 6%. In series [8], the Papp A→B at 3 h, 10 µM was determined as 13 ×10⁻⁶ cm/s.

With `O=C(Nc1c[nH]nc1-c1cc(Cl)ccc1OC(F)F)c1cnn2cccnc12`, the IC50 in series [1] was determined as 1.2 nM. The molecule also displayed a logD in series [2] of 3.2. Besides, the inhibition was 38% in series [3]; 10% in series [4]; 8% in series [5]; 3% in series [6]; 2% in series [7]. In addition, the Papp A→B at 3 h, 10 µM in series [8] turned out to be 14 ×10⁻⁶ cm/s.
